Earlier results, collected in US5981578A (priority 1997, dated 1999).

Details: in just a few days

For O=C1O[C@H]([C@@H](O)CO)C(O)=C1O [Ascorbic acid, ascorbic acid], the “color development of aqueous preparations” value is listed as “develop colors, progressively, from light yellow to orange dark brown”.
